Laboratory results from publication PMC8636943.
One block for each molecule: values may come before it.

How the values were obtained:
[1] = test system: anti-VEGF165 aptamer (DNA, aptamer) CCGTCTTCCAGACAAGAGTGCAGGG; assay: biolayer interferometry (Octet RED96); details: binding buffer (composition not given), 25 °C
[2] = test system: G4-Apt (DNA, G4) AGGGACGGGACCGTCTTCCAGACAAGAGTGCAGGGAGGGACGGGA; assay: biolayer interferometry (Octet RED96); details: binding buffer (composition not given), 25 °C
VEGF165 = VEGF165 (human, UniProt P15692-4 27-191); assay: BLI; BLI (Octet RED96), 25 C, 1000 rpm, 200 uL binding buffer (composition not given), VEGF165 6.25-100 nM, BSA blank as reference; details: protein: commercial, chain copies: 2
Sequence of VEGF165 (P15692 other isoform, or with tags, fused parts or gaps): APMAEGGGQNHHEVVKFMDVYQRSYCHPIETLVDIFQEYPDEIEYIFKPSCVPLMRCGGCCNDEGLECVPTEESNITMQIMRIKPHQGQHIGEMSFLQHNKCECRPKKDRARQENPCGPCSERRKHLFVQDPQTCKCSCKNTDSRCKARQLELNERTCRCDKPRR

binding [1]: no
K D [2]: 52900 nM
Molecule: Cc1ccc2c(c1)sc(-c1ccc(N(C)C)cc1)[n+]2C

Molecule: AGGGACGGGACCGTCTTCCAGACAAGAGTGCAGGGAGGGACGGGA (structured_DNA) [G4-Apt]
Kd (VEGF165; largely parallel G-quadruplex by CD): 0.538 nM

Molecule: CCGTCTTCCAGACAAGAGTGCAGGG (ssDNA) [anti-VEGF165 aptamer]
Kd (VEGF165; B-DNA form by CD): 0.287 nM
